Data from ChEMBL document CHEMBL3414443, “Truncated structures used in search for new lead compounds and in a retrospective analysis of thienopyrimidine-based EGFR inhibitors” (Eur J Med Chem, 2015).

molecular target: T1, Epidermal growth factor receptor (Homo sapiens, UniProt P00533); experiment: Inhibition of EGFR (unknown origin) using Poly(Glu:Tyr) 4:1 as substrate after 12 to 16 hrs
T1 sequence (P00533 whole entry): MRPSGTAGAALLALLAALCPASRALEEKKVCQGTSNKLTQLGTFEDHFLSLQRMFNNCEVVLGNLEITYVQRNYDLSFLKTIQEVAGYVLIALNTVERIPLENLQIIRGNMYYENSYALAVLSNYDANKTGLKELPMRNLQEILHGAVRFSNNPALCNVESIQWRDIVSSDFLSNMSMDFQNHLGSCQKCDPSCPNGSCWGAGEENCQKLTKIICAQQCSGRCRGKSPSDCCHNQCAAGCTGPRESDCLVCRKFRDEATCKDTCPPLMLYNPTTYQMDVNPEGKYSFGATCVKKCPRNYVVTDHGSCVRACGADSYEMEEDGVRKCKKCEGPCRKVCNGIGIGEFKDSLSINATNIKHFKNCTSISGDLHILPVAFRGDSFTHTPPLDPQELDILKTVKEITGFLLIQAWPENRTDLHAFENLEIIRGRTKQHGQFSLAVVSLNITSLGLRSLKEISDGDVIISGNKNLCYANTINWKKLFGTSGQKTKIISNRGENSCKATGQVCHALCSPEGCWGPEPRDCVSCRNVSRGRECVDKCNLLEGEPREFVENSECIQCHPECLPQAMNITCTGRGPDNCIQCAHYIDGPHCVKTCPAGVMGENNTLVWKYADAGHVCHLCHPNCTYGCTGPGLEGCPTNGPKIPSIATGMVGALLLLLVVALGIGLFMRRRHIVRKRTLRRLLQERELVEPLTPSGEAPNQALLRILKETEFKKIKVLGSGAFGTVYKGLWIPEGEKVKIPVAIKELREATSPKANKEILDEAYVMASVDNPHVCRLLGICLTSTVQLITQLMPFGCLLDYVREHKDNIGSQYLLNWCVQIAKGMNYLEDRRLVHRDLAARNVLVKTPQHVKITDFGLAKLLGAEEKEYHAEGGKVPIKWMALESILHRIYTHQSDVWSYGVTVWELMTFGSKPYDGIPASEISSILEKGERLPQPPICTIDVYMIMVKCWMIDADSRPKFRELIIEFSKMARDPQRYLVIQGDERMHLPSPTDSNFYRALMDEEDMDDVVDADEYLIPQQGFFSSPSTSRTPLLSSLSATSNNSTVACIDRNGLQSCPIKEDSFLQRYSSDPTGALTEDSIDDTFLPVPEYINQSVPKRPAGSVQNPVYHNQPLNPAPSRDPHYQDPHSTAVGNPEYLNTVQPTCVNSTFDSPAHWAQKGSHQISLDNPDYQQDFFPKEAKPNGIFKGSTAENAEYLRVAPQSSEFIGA

| IC50 [nM] | Compound |
| --- | --- |
| 600 | OC[C@@H](Nc1ncnc2sc(-c3ccc(CN4CCNCC4)cc3)cc12)c1ccccc1 |
| > 5000 | O=C(c1ccc(-c2cc3c(N[C@H](CO)c4ccccc4)ncnc3s2)cc1)N1CCN(CCO)CC1 |
| 600 | OCCN1CCN(Cc2ccc(-c3cc4c(N[C@H](CO)c5ccccc5)ncnc4s3)cc2)CC1 |

molecular target: T1, Epidermal growth factor receptor; experiment: Inhibition of EGFR (unknown origin) after 40 mins by scintillation proximity assay

| IC50 [nM] | Compound |
| --- | --- |
| 109 | Fc1cccc(COc2ccc(Nc3ncnc4sc(C#CC5CCCN5)cc34)cc2Cl)c1 (centres undefined) |

molecular target: T1, Epidermal growth factor receptor; experiment: Inhibition of EGFR (unknown origin) by Z'-LYTE assay

| IC50 [nM] | Compound |
| --- | --- |
| 629 | COc1ccccc1-c1cc2c(N[C@@H](CO)c3ccccc3)ncnc2s1 |
| 18 | C#Cc1cccc(Nc2ncnc3sc(-c4ccccc4OC)cc23)c1 |
| 1 | COc1ccccc1-c1cc2c(N[C@H](CO)c3ccccc3)ncnc2s1 |
| 173 | COc1ccccc1-c1cc2c(Nc3ccccc3)ncnc2s1 |
| 170 | COc1ccccc1-c1cc2c(NCc3cccs3)ncnc2s1 |
| 19 | COc1ccccc1-c1cc2c(NC(C)c3ccccc3)ncnc2s1 (racemic) |
| 1860 | COc1ccccc1-c1cc2c(N[C@@H](C)c3ccccc3)ncnc2s1 |
| 23 | COC[C@@H](Nc1ncnc2sc(-c3ccccc3OC)cc12)c1ccccc1 |
| 5 | COc1ccccc1-c1cc2c(Nc3ccc(F)c(Cl)c3)ncnc2s1 |
| 17 | COc1ccccc1-c1cc2c(NCc3ccccc3)ncnc2s1 |
| 8 | COc1ccccc1-c1cc2c(NC(CO)c3ccccc3)ncnc2s1 (racemic) |
| 55 | COc1ccccc1-c1cc2c(N[C@H](C)c3cccs3)ncnc2s1 |
| 153 | COc1ccccc1-c1cc2c(N[C@H](C)c3ccccn3)ncnc2s1 |
| 27 | COc1ccccc1-c1cc2c(N[C@H](C)c3ccc(F)cc3)ncnc2s1 |
| 183 | COc1ccccc1-c1cc2c(NCc3ccccn3)ncnc2s1 |
| 150 | C[C@@H](Nc1ncnc2sc(Br)cc12)c1ccc(F)cc1 |
| 108 | COc1ccccc1-c1cc2c(NCc3ccncc3)ncnc2s1 |
| 9 | COc1ccccc1-c1cc2c(N[C@H](C)c3ccccc3)ncnc2s1 |

The next lines start with the compound.

| Compound | IC50 [nM] |
| --- | --- |
| OC[C@H](Nc1ncnc2sc(Br)cc12)c1ccccc1 | > 10000 |
| COc1ccccc1-c1cc2c(NCc3cccnc3)ncnc2s1 | 275 |
| Brc1cc2c(Nc3cccc(OCc4ccccc4)c3)ncnc2s1 | > 10000 |
| COC[C@H](Nc1ncnc2sc(Br)cc12)c1ccccc1 | > 10000 |
| Brc1cc2c(NCc3cccnc3)ncnc2s1 | > 10000 |
| COC[C@@H](Nc1ncnc2sc(Br)cc12)c1ccccc1 | 262 |
| C[C@@H](Nc1ncnc2sc(Br)cc12)c1ccccc1 | 38 |
| C[C@@H](Nc1ncnc2sc(Br)cc12)c1cccs1 | 415 |
| Brc1cc2c(NCc3ccccn3)ncnc2s1 | 7900 |
| CC[C@@H](Nc1ncnc2sc(Br)cc12)c1ccccc1 | 183 |
| Fc1ccc(Nc2ncnc3sc(Br)cc23)cc1Cl | 53 |
| Fc1cccc(COc2ccc(Nc3ncnc4sc(Br)cc34)cc2Cl)c1 | 257 |
| C[C@@H](Nc1ncnc2sc(Br)cc12)c1ccccn1 | 2080 |
| OC[C@@H](Nc1ncnc2sc(Br)cc12)c1ccccc1 | 36 |
| Brc1cc2c(Nc3ccccc3)ncnc2s1 | 80 |
| OCC(Nc1ncnc2sc(Br)cc12)c1ccccc1 (racemic) | 83 |
| C#Cc1cccc(Nc2ncnc3sc(Br)cc23)c1 | 23 |
| Brc1cc2c(NCc3cccs3)ncnc2s1 | 1370 |
| CC(Nc1ncnc2sc(Br)cc12)c1ccccc1 (racemic) | 156 |
| Brc1cc2c(NCc3ccccc3)ncnc2s1 | 241 |
| C[C@H](Nc1ncnc2sc(Br)cc12)c1ccccc1 | > 10000 |
| Brc1cc2c(NCc3ccncc3)ncnc2s1 | 3880 |
